From patent EP0163537A1, “1-Propanone derivatives and pharmaceutical compositions containing same” (priority 1984, dated 1985)
Structures can show the parent of a compound that is named as a salt. Where two headings read alike, the source gives them in different places.

Legend:
Format in all cases: in vivo
[1] = tested on: Male mice of ddY strain; test: Test 2 Anti-tremorine activity (inhibition of tremorine-induced tremor); conditions: for responders at 50 mg/kg: Mus musculus, po, read-out: Inhibition of tremor (%)
Protocol: Male mice of ddY strain, weighing 28 to 32 g, were used in groups of eight or ten. The test compounds were dissolved in distilled water and administered orally in a dose of 50 mg/kg. After 30 minutes, tremorine dihydrochloride was subcutaneously administered in a dose of 20 mg/kg. Then, the occurrence of tremor was observed after the lapse of 30 and 60 minutes.

[2] = tested on: Male mice of ddY strain; test: Test 1 Anti-nicotine activity (inhibition of nicotine-induced convulsive death); conditions: 200 mg/kg po, nicotine 2 mg/kg iv after 1 h, observed 1 h; for responders at 200 mg/kg: Mus musculus
Protocol: Male mice of ddY strain, weighing 28 to 33 g, were used in groups of eight or twelve. The test compounds were dissolved in distilled water and administered orally in a dose of 200 mg/kg. After an hour, nicotine was intravenously administered in a dose of 2 mg/kg.

[3] = tested on: Male mice of ddY strain; test: Test 3 Muscle relaxant activity (traction test, method of Courvoisier et al.); conditions: 15 minutes after administration, groups of ten
Protocol: Male mice of ddY strain, weighing 30 to 37 g, were used in groups of ten. The test compounds were dissolved in physiological saline and administered intraperitoneally in a dose of 50 or 75 mg/kg. […] This method involves a traction test in which the animal is hung by its forelimbs on a horizontal metal rod (2 mm in diameter) placed 20 cm above the floor and examined as to whether it can put its hindlimb on the rod or not.
Specifically, 15 minutes after administration of a test compound, the mouse was hung on the rod by its forelimbs. […] It had been confirmed in preliminary tests that, under normal conditions, all the mice could put their hindlimb on the rod within 5 seconds.

[4] = Test 5 Acute toxicity (LD50, method of Behrens and Kärbar); conditions: mouse, in vivo, po, mice, observed for 7 days
Protocol: Male mice of ddY strain, weighing 25 to 30 g, were used in groups of five. The test compounds were dissolved in distilled water and administered orally in various doses. […] Then, the LDso was calculated according to the method of Behrens and Kärbar.

[5] = 0.5 h, Table-3b, 50 mg/kg po, After 30 min., 10 animals used
[6] = 1 h, Table-3b, 50 mg/kg po, After 60 min., 10 animals used
[7] = Table-3b, 50 mg/kg po, After 30 min., 10 animals used
[8] = Table-3b, 50 mg/kg po, After 60 min., 10 animals used
[9] = po, 1 h, Table-2c, 12 animals used
[10] = 0.5 h, Table-3d, 50 mg/kg po, After 30 min., 10 animals used
[11] = 1 h, Table-3d, 50 mg/kg po, After 60 min., 10 animals used
[12] = Table-3d, 50 mg/kg po, After 30 min., 10 animals used
[13] = Table-3d, 50 mg/kg po, After 60 min., 10 animals used
[14] = po, 1 h, Table-2a, 8 animals used
[15] = 0.5 h, Table-3a, 50 mg/kg po, After 30 min. from tremorine 20 mg/kg sc, 8 animals used
[16] = 1 h, Table-3a, 50 mg/kg po, After 60 min. from tremorine 20 mg/kg sc, 8 animals used
[17] = Table-3a, 50 mg/kg po, After 30 min. from tremorine 20 mg/kg sc, 8 animals used
[18] = Table-3a, 50 mg/kg po, After 60 min. from tremorine 20 mg/kg sc, 8 animals used
[19] = po, 1 h, Table-2b, 12 animals used

CC(C)C(CN1CCCCC1)C(=O)c1ccc(C2CC2)cc1.Cl (stereo not shown) [Example 5, 1-(4-Cyclopropylphenyl)-2-isopropyl-3-piperidino-1-propanone hydrochloride]
responders at 50 mg/kg [1, 5]: 100%
responders at 50 mg/kg [1, 6]: 100%
Number of animals exhibiting no tremor [1, 7]: 10
Number of animals exhibiting no tremor [1, 8]: 10

CCC(CN1CCCCCC1)C(=O)c1ccc2c(c1)CCO2.Cl (stereo not shown) [Example 96, 1-(2,3-Dihydro-5-benzofuranyl)-2-ethyl-3-(hexa-hydro-1H-azepin-1-yl)-1-propanone hydrochloride]
responders at 200 mg/kg [2, 9]: 41.7%
Number of surviving animals ([2]; Table-2c, 12 animals used): 5
responders at 50 mg/kg [1, 10]: 100%
responders at 50 mg/kg [1, 11]: 100%
Number of animals exhibiting no tremor [1, 12]: 10
Number of animals exhibiting no tremor [1, 13]: 10

CCC(CN1CCCC1)C(=O)c1ccc(C2CC2)cc1.Cl (stereo not shown) [Example 10, 1-(4-Cyclopropylphenyl)-2-ethyl-3-(1-pyrrolidinyl)-1-propanone hydrochloride]
responders at 200 mg/kg [2, 14]: 0%
Number of surviving animals ([2]; Table-2a, 8 animals used): 0
responders at 50 mg/kg [1, 15]: 100%
responders at 50 mg/kg [1, 16]: 100%
Number of animals exhibiting no tremor [1, 17]: 8
Number of animals exhibiting no tremor [1, 18]: 8

CCC(CN1CCCC1)C(=O)c1ccc2c(c1)CCO2.Cl (stereo not shown) [Example 95, 1-(2,3-Dihydro-5-benzofuranyl)-2-ethyl-3-(1-pyrrolidinyl)-1-propanone hydrochloride]
responders at 200 mg/kg ([2]; Table-2c, 12 animals used): 16.7%
Number of surviving animals ([2]; Table-2c, 12 animals used): 2
responders at 50 mg/kg ([1]; 0.5 h): 100%
responders at 50 mg/kg ([1]; 1 h): 100%
Number of animals exhibiting no tremor [1, 12]: 10
Number of animals exhibiting no tremor [1, 13]: 10

CC(CN1CCCCC1)C(=O)c1ccc(C2CCCCC2)cc1.Cl (stereo not shown) [Example 48, 1-(4-Cyclohexylphenyl)-2-methyl-3-piperidino-1-propanone hydrochloride]
responders at 200 mg/kg [2, 14]: 62.5%
Number of surviving animals ([2]; Table-2a, 8 animals used): 5
responders at 50 mg/kg [1, 15]: 100%
responders at 50 mg/kg [1, 16]: 37.5%

1-(2,3-Dihydro-5-benzofuranyl)-2-ethyl-3-piperidino-1-propanone hydrochloride [Example 89]
Inhibition of death (%) ([2]; Table-2c, 12 animals used): 66.7%
Number of surviving animals ([2]; Table-2c, 12 animals used): 8
Inhibition of tremor (%) [1, 12]: 100%
Number of animals exhibiting no tremor [1, 12]: 10
Inhibition of tremor (%) [1, 13]: 100%
Number of animals exhibiting no tremor [1, 13]: 10
Muscle relaxation rate (%) ([3]; Table-4d, 75 mg/kg ip): 50%
Number of animals exhibiting muscle relaxation ([3]; Table-4d, 75 mg/kg ip): 5

CCc1ccc(C(=O)C(C)CN2CCCCC2)cc1 (stereo not shown) [Eperisone HCl, Eperisone, reference compound]
responders at 200 mg/kg [2, 14]: 50%
responders at 200 mg/kg [2, 19]: 50%
responders at 200 mg/kg [2, 9]: 50%
responders at 50 mg/kg [1, 15]: 87.5%
responders at 50 mg/kg [1, 5]: 80%
responders at 50 mg/kg [1, 10]: 80%
responders at 50 mg/kg [1, 16]: 0%
responders at 50 mg/kg [1, 6]: 10%
responders at 50 mg/kg [1, 11]: 20%
Number of animals exhibiting muscle relaxation ([3]; Table-4a, 50 mg/kg ip): 2
Number of animals exhibiting muscle relaxation ([3]; Table-4d, 75 mg/kg ip): 2
LD50 at 168 h ([4]; Table-5a): 595 mg/kg
LD50 at 168 h ([4]; Table-5b): 475 mg/kg
LD50 at 168 h ([4]; Table-5c): 565 mg/kg

Cl.O=C(c1ccc(C2CC2)cc1)C(CN1CCCCC1)C1CCCC1 (stereo not shown) [Example 37, 2-Cyclopentyl-1-(4-cyclopropylphenyl)-3-piperidino-1-propanone hydrochloride]
responders at 50 mg/kg [1, 5]: 80%
responders at 50 mg/kg [1, 6]: 80%
Number of animals exhibiting no tremor [1, 7]: 8
Number of animals exhibiting no tremor [1, 8]: 8

CC(CN1CCCC1)C(=O)c1ccc2c(c1)OCO2 (stereo not shown) [Example 60, 2-Methyl-1-(3,4-methylenedioxyphenyl)-3-(1-pyrrolidi-nyl)-1-propanone hydrochloride]
responders at 200 mg/kg ([2]; Table-2b, 12 animals used): 58.3%
Number of surviving animals ([2]; Table-2b, 12 animals used): 7

CCCC(CN1CCCC1)C(=O)c1ccc2c(c1)CCO2.Cl (stereo not shown) [Example 98, 1-(2,3-Dihydro-5-benzofuranyl)-2-n-propyl-3-(1-pyrrolidinyl)-1-propanone hydrochloride]
responders at 200 mg/kg ([2]; Table-2c, 12 animals used): 0%
Number of surviving animals ([2]; Table-2c, 12 animals used): 0
responders at 50 mg/kg ([1]; 0.5 h): 100%
responders at 50 mg/kg ([1]; 1 h): 90%

CCC(CN1CCCC1)C(=O)c1ccc2c(c1)OCO2 (stereo not shown) [Example 56, 2-Ethyl-1-(3,4-methylenedioxyphenyl)-3-(1-pyrrolidi-nyl)-1-propanone hydrochloride]
responders at 200 mg/kg ([2]; Table-2b, 12 animals used): 41.7%
Number of surviving animals ([2]; Table-2b, 12 animals used): 5

CCC(CN1CCCCC1)C(=O)c1ccc(C2CC2)cc1.Cl (stereo not shown) [Example 11, 1-(4-Cyclopropylphenyl)-2-ethyl-3-piperidino-1-propanone hydrochloride]
responders at 200 mg/kg [2, 14]: 37.5%
Number of surviving animals ([2]; Table-2a, 8 animals used): 3
responders at 50 mg/kg [1, 15]: 100%
responders at 50 mg/kg [1, 16]: 100%
Number of animals exhibiting no tremor [1, 17]: 8
Number of animals exhibiting no tremor [1, 18]: 8

CC(CN1CCCCCC1)C(=O)c1ccc2c(c1)OCO2.Cl (stereo not shown) [Example 61, 2-Methyl-1-(3,4-methylenedioxyphenyl)-3-(hexahydro-1H-azepin-1-yl)-1-propanone hydrochloride]
responders at 200 mg/kg ([2]; Table-2b, 12 animals used): 58.3%
Number of surviving animals ([2]; Table-2b, 12 animals used): 7

CC(CN1CCCC1)C(=O)c1ccc(C2CC2)cc1.Cl (stereo not shown) [Example 8, 1-(4-Cyclopropylphenyl)-2-methyl-3-(1-pyrrolidinyl)-1-propanone hydrochloride]
responders at 200 mg/kg [2, 14]: 62.5%
Number of surviving animals ([2]; Table-2a, 8 animals used): 5
responders at 50 mg/kg [1, 15]: 100%
responders at 50 mg/kg [1, 16]: 87.5%
Number of animals exhibiting muscle relaxation ([3]; Table-4a, 50 mg/kg ip): 7
LD50 at 168 h ([4]; Table-5a): 505 mg/kg

CC(CN1CCCCC1)C(=O)c1ccc(C2CCCC2)cc1.Cl (stereo not shown) [Example 41, 1-(4-Cyclopentylphenyl)-2-methyl-3-piperidino-1-propanone hydrochloride]
responders at 200 mg/kg [2, 14]: 37.5%
Number of surviving animals ([2]; Table-2a, 8 animals used): 3
responders at 50 mg/kg [1, 15]: 75%
responders at 50 mg/kg [1, 16]: 12.5%

CCCC(CN1CCCCC1)C(=O)c1ccc2c(c1)CCO2.Cl (stereo not shown) [Example 99, 1-(2,3-Dihydro-5-benzofuranyl)-2-n-propyl-3-piperidino-1-propanone hydrochloride]
responders at 200 mg/kg [2, 9]: 25%
Number of surviving animals ([2]; Table-2c, 12 animals used): 3
responders at 50 mg/kg [1, 10]: 100%
responders at 50 mg/kg [1, 11]: 90%
Number of animals exhibiting muscle relaxation ([3]; Table-4d, 75 mg/kg ip): 2

Cc1ccc(C(=O)C(C)CN2CCCCC2)cc1 (stereo not shown) [Tolperisone HCl, 2-methyl-1-(4-methylphenyl)-3-(1-piperidinyl)-1-propanone, reference compound]
responders at 200 mg/kg [2, 14]: 0%
responders at 200 mg/kg [2, 19]: 0%
responders at 200 mg/kg [2, 9]: 8.3%
responders at 50 mg/kg [1, 15]: 0%
responders at 50 mg/kg [1, 5]: 0%
responders at 50 mg/kg [1, 10]: 0%
responders at 50 mg/kg [1, 16]: 0%
responders at 50 mg/kg [1, 6]: 0%
responders at 50 mg/kg [1, 11]: 0%
Number of animals exhibiting no tremor [1, 17]: 0
Number of animals exhibiting no tremor [1, 18]: 0
Number of animals exhibiting no tremor [1, 7]: 0
Number of animals exhibiting no tremor [1, 8]: 0
Number of animals exhibiting no tremor [1, 12]: 0
Number of animals exhibiting no tremor [1, 13]: 0
Number of animals exhibiting muscle relaxation ([3]; Table-4a, 50 mg/kg ip): 1
Number of animals exhibiting muscle relaxation ([3]; Table-4d, 75 mg/kg ip): 1
LD50 at 168 h ([4]; Table-5a): 625 mg/kg
LD50 at 168 h ([4]; Table-5b): 655 mg/kg
LD50 at 168 h ([4]; Table-5c): 595 mg/kg

CCCC(CN1CCCCCC1)C(=O)c1ccc2c(c1)CCO2.Cl (stereo not shown) [Example 100, 1-(2,3-Dihydro-5-benzofuranyl)-2-n-propyl-3-(hexahydro-1H-azepin-1-yl)-1-propanone hydrochloride]
responders at 200 mg/kg ([2]; Table-2c, 12 animals used): 0%
Number of surviving animals ([2]; Table-2c, 12 animals used): 0
responders at 50 mg/kg ([1]; 0.5 h): 100%
responders at 50 mg/kg ([1]; 1 h): 100%
Number of animals exhibiting no tremor [1, 12]: 10
Number of animals exhibiting no tremor [1, 13]: 10

CC(CN1CCCCCC1)C(=O)c1ccc(C2CC2)cc1.Cl (stereo not shown) [Example 9, 1-(4-Cyclopropylphenyl)-2-methyl-3-(hexahydro-1H-azepin-1-yl)-1-propanone hydrochloride]
responders at 200 mg/kg [2, 14]: 75%
Number of surviving animals ([2]; Table-2a, 8 animals used): 6
responders at 50 mg/kg [1, 15]: 100%
responders at 50 mg/kg [1, 16]: 87.5%
Number of animals exhibiting muscle relaxation ([3]; Table-4a, 50 mg/kg ip): 7
LD50 at 168 h ([4]; Table-5a): 655 mg/kg
